According to ChEMBL document CHEMBL3112435, “1H-1,2,3-Triazole-tethered isatin-7-chloroquinoline and 3-hydroxy-indole-7-chloroquinoline conjugates: synthesis and antimalarial evaluation” (Bioorg Med Chem Lett, 2014):

Test system: Plasmodium falciparum
Assay: Antimalarial activity against chloroquine-resistant Plasmodium falciparum W2 after 48 hrs by flow cytometry
Type: functional, organism-based
Conditions: W2, 48 h

Row | SMILES | IC50
1 | Cc1ccc2c(c1)C(O)C(=O)N2CCCCn1cc(COc2ccc(CNNc3ccnc4cc(Cl)ccc34)cc2)nn1 (configuration not stated) | 326 nM
2 | O=C1C(=O)N(CCCCn2cc(COc3ccc(/C=N/Nc4ccnc5cc(Cl)ccc45)cc3)nn2)c2ccc(F)cc21 | 134 nM
3 | O=C1C(O)c2cc(F)ccc2N1CCCn1cc(COc2ccc(CNNc3ccnc4cc(Cl)ccc34)cc2)nn1 (configuration not stated) | 206 nM
4 | Cc1ccc2c(c1)C(=O)C(=O)N2CCn1cc(COc2ccc(/C=N/Nc3ccnc4cc(Cl)ccc34)cc2)nn1 | 185 nM
5 | Cc1ccc2c(c1)C(O)C(=O)N2CCn1cc(COc2ccc(CNNc3ccnc4cc(Cl)ccc34)cc2)nn1 (configuration not stated) | 320 nM
6 | Cc1ccc2c(c1)C(=O)C(=O)N2CCn1cc(COc2ccc(C=O)cc2)nn1 | > 10000 nM
7 | O=Cc1ccc(OCc2cn(CCCCN3C(=O)C(=O)c4cc(F)ccc43)nn2)cc1 | > 10000 nM
8 | O=C1C(O)c2ccccc2N1CCCn1cc(COc2ccc(CNNc3ccnc4cc(Cl)ccc34)cc2)nn1 (configuration not stated) | 339 nM
9 | O=Cc1ccc(OCc2cn(CCCN3C(=O)C(=O)c4cc(F)ccc43)nn2)cc1 | > 10000 nM
10 | O=C1C(=O)N(CCCn2cc(COc3ccc(/C=N/Nc4ccnc5cc(Cl)ccc45)cc3)nn2)c2ccc(F)cc21 | 288 nM
11 | O=C1C(=O)N(CCn2cc(COc3ccc(/C=N/Nc4ccnc5cc(Cl)ccc45)cc3)nn2)c2ccccc21 | 118 nM
12 | O=Cc1ccc(OCc2cn(CCN3C(=O)C(=O)c4cc(Cl)ccc43)nn2)cc1 | > 10000 nM
13 | O=C1C(O)c2cc(F)ccc2N1CCCCn1cc(COc2ccc(CNNc3ccnc4cc(Cl)ccc34)cc2)nn1 (configuration not stated) | 164 nM
14 | O=C1C(=O)N(CCCn2cc(COc3ccc(/C=N/Nc4ccnc5cc(Cl)ccc45)cc3)nn2)c2ccc(Cl)cc21 | 346 nM
15 | O=C1C(O)c2cc(Cl)ccc2N1CCn1cc(COc2ccc(CNNc3ccnc4cc(Cl)ccc34)cc2)nn1 (configuration not stated) | 182 nM
16 | O=Cc1ccc(OCc2cn(CCCN3C(=O)C(=O)c4ccccc43)nn2)cc1 | > 10000 nM
17 | O=C1C(O)c2ccccc2N1CCCCn1cc(COc2ccc(CNNc3ccnc4cc(Cl)ccc34)cc2)nn1 (configuration not stated) | 69 nM
18 | O=C1C(O)c2cc(F)ccc2N1CCn1cc(COc2ccc(CNNc3ccnc4cc(Cl)ccc34)cc2)nn1 (configuration not stated) | 112 nM
19 | O=C1C(O)c2cc(Cl)ccc2N1CCCn1cc(COc2ccc(CNNc3ccnc4cc(Cl)ccc34)cc2)nn1 (configuration not stated) | 350 nM

Row | SMILES | IC50
20 | O=C1C(=O)N(CCCCn2cc(COc3ccc(/C=N/Nc4ccnc5cc(Cl)ccc45)cc3)nn2)c2ccc(Cl)cc21 | 141 nM
21 | O=Cc1ccc(OCc2cn(CCCCN3C(=O)C(=O)c4ccccc43)nn2)cc1 | > 10000 nM
22 | O=Cc1ccc(OCc2cn(CCN3C(=O)C(=O)c4cc(F)ccc43)nn2)cc1 | > 10000 nM
23 | O=Cc1ccc(OCc2cn(CCCN3C(=O)C(=O)c4cc(Cl)ccc43)nn2)cc1 | > 10000 nM
24 | O=C1C(=O)N(CCCCn2cc(COc3ccc(/C=N/Nc4ccnc5cc(Cl)ccc45)cc3)nn2)c2ccccc21 | 119 nM
25 | O=Cc1ccc(OCc2cn(CCCCN3C(=O)C(=O)c4cc(Cl)ccc43)nn2)cc1 | > 10000 nM
26 | Cc1ccc2c(c1)C(=O)C(=O)N2CCCn1cc(COc2ccc(/C=N/Nc3ccnc4cc(Cl)ccc34)cc2)nn1 | 163 nM
27 | Cc1ccc2c(c1)C(=O)C(=O)N2CCCCn1cc(COc2ccc(C=O)cc2)nn1 | 6420 nM
28 | Cc1ccc2c(c1)C(=O)C(=O)N2CCCCn1cc(COc2ccc(/C=N/Nc3ccnc4cc(Cl)ccc34)cc2)nn1 | 204 nM
29 | Cc1ccc2c(c1)C(O)C(=O)N2CCCn1cc(COc2ccc(CNNc3ccnc4cc(Cl)ccc34)cc2)nn1 (configuration not stated) | 509 nM
30 | Cc1ccc2c(c1)C(=O)C(=O)N2CCCn1cc(COc2ccc(C=O)cc2)nn1 | > 10000 nM
31 | C[C@@H]1CC[C@H]2[C@@H](C)C(=O)O[C@@H]3O[C@@]4(C)CC[C@@H]1[C@]32OO4 [ARTEMISININ] | 7 nM
32 | O=Cc1ccc(OCc2cn(CCN3C(=O)C(=O)c4ccccc43)nn2)cc1 | > 10000 nM
33 | O=C1C(O)c2cc(Cl)ccc2N1CCCCn1cc(COc2ccc(CNNc3ccnc4cc(Cl)ccc34)cc2)nn1 (configuration not stated) | 168 nM
34 | O=C1C(=O)N(CCCn2cc(COc3ccc(/C=N/Nc4ccnc5cc(Cl)ccc45)cc3)nn2)c2ccccc21 | 165 nM
35 | O=C1C(=O)N(CCn2cc(COc3ccc(/C=N/Nc4ccnc5cc(Cl)ccc45)cc3)nn2)c2ccc(F)cc21 | 190 nM
36 | O=C1C(=O)N(CCn2cc(COc3ccc(/C=N/Nc4ccnc5cc(Cl)ccc45)cc3)nn2)c2ccc(Cl)cc21 | 263 nM
37 | O=C1C(O)c2ccccc2N1CCn1cc(COc2ccc(CNNc3ccnc4cc(Cl)ccc34)cc2)nn1 (configuration not stated) | 128 nM
